Reference: US20030180947A1, “Circadian control of stem/progenitor cell self-renewal and differentiation and of clock controlled gene expression” (priority 2001, published 2003)
“Also recorded” adds a separate entry of the source. Values belong to the molecule of their own block, whether it stands above or below them.

Tests used:
[1] = system: mPer2 expression in the lin− cells; assay: Effect on mPer2 expression in lin− bone marrow cells (relative quantitative RT-PCR); format: cell-based, mouse; details: 200 nM dexamethasone or 1 μM PMA, 1 or 2 hours, vs ethanol control
Method: (§1) Bone marrow cells were incubated with ACK lysing buffer (0.15M NH4Cl, 1 mM KHCO3 and 0.1 mM Na2EDTA; pH7.2) at room temperature for 4 minutes to remove red blood cells. The lin^− (lineage marker-negative) bone marrow cells were obtained by depleting lineage marker-positive cells using the MACS magnetic separation system (Miltenyi Biotec, Auburn, Calif.) according to the manufacturer's instructions. The antibodies used were PE-labeled rat anti-mouse Gr-1, TER119, B220, CD4, CD8, and Mac-1 monoclonal antibodies (all from BD PharMingen, San Diego, Calif.). Briefly, the cells were incubated with the antibody cocktail for the lineage markers described above at 6-10° C. for 15 minutes. After two washes with 1×phosphate-buffered saline (PBS; Sigma, St. Louis, Mo.) supplemented with 0.5% FBS (Hyclone), the cells were incubated with anti-PE antibody-coated magnetic beads (Miltenyi Biotec) at 6-10° C. for 15 minutes. […]
(§2) For each RT-PCR experiment, samples from six time points were analyzed at the same time. […]
(§3) Within each PCR experiment, the linear range of amplification was first determined using cDNA pooled from 6 time points. […]
(§4) As a negative control, the products of the RT reactions, without reverse transcriptase, were subjected to the same PCR amplification. […] Their relative quantities were determined by using the Image-Pro Plus software (Media Cybernetics). […]

[2] = system: mPer1 expression in the lin− cells; assay: Effect on mPer1 expression in lin− bone marrow cells (relative quantitative RT-PCR); format: cell-based, mouse; details: 200 nM dexamethasone or 1 μM PMA, 1 or 2 hours, vs ethanol control
Method: as §1, §2, §3, §4

Rat-1 fibroblasts = details: cultured Rat-1 fibroblasts; Balsalobre et al. 2000; cited from earlier work
mper1 promoter = assay: Per1-luciferase reporter (pGL3-mPer1-7.2 kb) in transfected NIH 3T3 cells; format: cell-based, mouse; details: NIH 3T3, pGL3-mPer1-7.2 kb; 10^−6 M; 7 hours; FIG. 14
Text: FIG. 14 is a bar graph illustrating the effects of neurotransmitter analog treatment on NIH 3T3 cells transfected with pGL3-mPer1-7.2kb, which contains luciferase under control of a 7.2 kb region of the mper1 promoter. Cells were exposed to 10^−6 M forskolin as a positive control, 10^−6 M isoproterenol (a beta-adrenergic agonist), 10^−6 M propranolol (a beta-adrenergic antagonist), 10^−6 M phenylephrine (an alpha-adrenergic agonist), and 10^−6 M pentolamine (an alpha-adrenergic antagonist) for 7 hours.
H1299 cells were maintained in RPMI1640 (Gibco) with 10% FBS (Hyclone). NIH3T3 cells were maintained in DMEM (Gibco) with 10% FBS (Hyclone). The day before transfection, 3×10^5 cells/well were plated onto six-well plates. Cells were transfected with 500 ng of each expression plasmid, 100 ng of the firefly luciferase reporter construct and 2 ng of the Renilla luciferase control plasmid (pRL-SV40; Promega) using SuperFect transfection reagent (Qiagen) following the manufacturer's instructions. The Renilla luciferase control plasmid was cotrasfected to normalize transfection efficiency. When expression plasmids were omitted, same amount of the pcDNA3 plasmid was used to substitute the expression plasmids. Forty hours after transfection, cells were washed once with 1×PBS (Sigma) and lysed with 500 μl of passive lysis buffer (Promega). Luciferase activity of the cell lysate was assayed with the Dual-Luciferase Reporter Assay System (Promega) using a luminometer (Optocomp1; MGM Instruments) as recommended by the manufacturer.
A Per1-luciferase reporter plasmid was constructed essentially as described above, using a 7.2 kb fragment of the promoter region from mper1, forming pGL3-mPer1-7.2 kb. NIH 3T3 cells were transfected with pGL3-mPer1-7.2 kb as described above and cells were exposed to 10^−6 M forskolin as a positive control, 10^−6 M isoproterenol (a beta-adrenergic agonist), 10^−6 M propranolol (a beta-adrenergic antogonist), 10^−6 M phenylephrine (an alpha-adrenergic agonist), and 10^−6 M pentolamine (an alpha-adrenergic antagonist). Cells were exposed to the neurotransmitters for 7 hours and luciferase activity was measured as described above.

[3] = target: T1, mLATS2 fused to the GAL4 DNA binding domain (pGBKT7-mLATS2) (mouse, UniProt P04386 1-147; Q7TSJ6 1-1042); assay: yeast two-hybrid assay
T1 construct: Yeast two-hybrid construct made by inserting the Bsm I-Xho I fragment of pcDNA3-mLATS2 into pGBKT7-mLATS2b; also called mLATS2/2b

Molecule: CCCCCCCCCCCCCC(=O)O[C@@H]1[C@@H](C)[C@@]2(O)[C@@H](C=C(CO)C[C@]3(O)C(=O)C(C)=C[C@@H]23)[C@@H]2C(C)(C)[C@]12OC(C)=O [PMA, phorbol-12-myristate-13-acetate]
mPer2 expression [1]: neither dexamethasone nor PMA had a significant effect | mPer1 expression [2]: not affected | Per1 induction and circadian gene expression (Rat-1 fibroblasts): induce mPer1 expression and elicit circadian gene expression; also recorded: induce immediate Per1 up-regulation and trigger circadian expression

Molecule: CC(C)NCC(O)c1ccc(O)c(O)c1 (stereo not shown) [isoproterenol]
expression levels relative to the forskolin positive control (mper1 promoter): slightly diminished | luciferase activity relative to control (mper1 promoter): increased luciferase activity

Molecule: Cc1ccc(N(CC2=NCCN2)c2cccc(O)c2)cc1 [pentolamine]
expression levels relative to the forskolin positive control (mper1 promoter): slightly diminished | luciferase activity relative to control (mper1 promoter): increased luciferase activity

Molecule: CNC[C@H](O)c1cccc(O)c1 [phenylephrine]
expression levels relative to the forskolin positive control (mper1 promoter): slightly diminished | luciferase activity relative to control (mper1 promoter): increased luciferase activity

binding result [3]: no binding
B1: mRBT1C76 fused to the GAL4 activation domain (pGADT7-mRBT1C76) (other, UniProt P04386 768-881, looked up)
chain: ANFNQSGNIADSSLSFTFTNSSNGPNLITTQTNSQALSQPIASSNVHDNFMNNEITASKIDDGNNSKPLSPGWTDQTAYNAFGITTGMFNTTTMDDVYNYLFDDEDTPPNPKKEPQNEIVSQADPVFLEALSSRYLGDSGLDDFFLDIDTSAVEKDVALPPPEPPHSLFCSPGSWEWNELDHIMEIILGS
notes: Yeast two-hybrid construct; also called C-terminal 76 amino acids of mRBT1
